Test results as given in patent US20130337579A1, “Methods for Determining Protein Ligand Binding” (UNIVERSITY OF MARYLAND, COLLEGE PARK, priority 2010, published 2013).

Columns and labels:
[1] = target: T1, HisMBP-Alg44PilZ (Pseudomonas aeruginosa, UniProt Q9HY69); assay: DRaCALA competition of cold nucleotides with 32P-cdiGMP binding to HisMBP-Alg44PilZ; parameters: species or system P. aeruginosa; details: 4 nM 32P-cdiGMP
T1 construct: His-MBP-Alg44PilZ was varied from 100 μM to 6 nM; made in house; host or cells: E. coli BL21(DE3)
T1 sequence (Q9HY69 16-116): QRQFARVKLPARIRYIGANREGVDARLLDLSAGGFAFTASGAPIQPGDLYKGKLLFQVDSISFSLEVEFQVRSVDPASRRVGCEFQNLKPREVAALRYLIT
Method: FIG. 2. Detection of specific protein-ligand interactions by DRaCALA. (A) DRaCALA images of interactions between purified proteins (20 μM) incubated with 500 nM ^14C-cAMP, 4 nM ^32P-ATP, or 4 nM ^32P-cdiGMP. Protein-ligand mixtures were spotted on nitrocellulose and allowed to dry prior to imaging using a Fuji FLA7100 phosphorimager. Cognate protein-nucleotide combinations are indicated by arrowheads. MBP was used as a negative control. (B) DRaCALA images of competition assays assessing the ability of 1 mM of the indicated cold nucleotides to compete with binding interactions between 4 nM ^32P-cdiGMP and 2.5 μM HisMBP-Alg44PilZ. (C) Graph of fraction bound for each sample in […] with averages indicated by a horizontal bar. NC indicates no competitor. P values were determined by a Student's t-test for significant differences when compared to the no-competitor (NC) control for three independent experiments. For total intensity of each DRaCALA spot in FIGS. 2A and 2B, see Tables 1 and 2, respectively.
Radiolabeled ligands were incubated with each of the proteins and the mixtures were spotted on nitrocellulose. After spreading by capillary action, membranes were dried and quantitated by phosphorimager. […] Each of the radiolabel signals from MBP mixtures was distributed by capillary action (FIG. 2A). […] The specificity of Alg44PilZ binding to cdiGMP was further tested by competition with excess unlabeled nucleotides (400-fold molar excess relative to the Alg44PilZ protein). Alg44PilZ binding to ^32P-cdiGMP was abolished by cdiGMP, but not by cGMP, GMP, GDP, GTP, ATP, CTP or UTP as was previously described (FIG. 2B). The FB for cdiGMP was 0.31±0.07, which was reversed by competition with unlabeled cdiGMP to the background level of 0.04±0.01 (FIG. 2C).
Protein or whole cell lysates in 1× cdiGMP binding buffer (20 μl) was mixed with 4 nM of radiolabeled nucleotide and allowed to incubate for 10 minutes at room temperature. Radiolabeled nucleotide was competed away by cold nucleotides in concentrations and for times indicated. Purified proteins were tested in technical replicates. Whole cell lysates in FIG. 4 and FIG. 12 were tested in biological triplicates. Whole cell lysates in FIG. 5 were tested in technical replicates. These mixtures were pipetted (2.5-5 μl) onto dry, untreated nitrocellulose (GE Healthcare) in triplicate and allowed to dry completely before quantification. An FLA7100 Fujifilm Life Science Phosphorimager was used to detect luminescence following a 5-minute exposure of blotted nitrocellulose to phosphorimager film. Data was quantified using Fujifilm Multi Gauge software v3.0.

[2] = target: Vc2* riboswitch RNA; assay: DRaCALA of cdiGMP binding to biotinylated Vc2* RNA immobilized by streptavidin; details: Vc2*-biotin RNA diluted, 4 nM 32P-cdiGMP
Method: FIG. 19. Vc2* RNA binding to ^32P-cdiGMP is detected by DRaCALA. (A) Spots visualized by phosphorimager with streptavidin used to immobilize biotinylated RNA. The binding reaction contained 4 nM ^32P-cdiGMP, 1 μM RNA, and 200 nM streptavidin in buffer (10 mM KCl, 10 mM sodium cacodylate, 3 mM MgCl2). (B) The affinity of Vc2*-biotin RNA for cdiGMP was determined with both EMSA and DRaCALA by diluting RNA in the binding reaction. The fraction bound is normalized such that 1.0 represents maximal binding.
We have shown that protein interaction with DNA can be detected by DRaCALA. We wondered if the principle of DRaCALA would also apply to ribonucleic acids. In particular, can the DRaCALA technology be used to detect the interaction of riboswitches with their small molecule ligands. One example of such an interaction that has been of recent interest is the cdiGMP responsive Vc2 riboswitch identified in bacteria. To study such an interaction with DRaCALA, one of the binding partners must be immobilized. […] The biotinylated riboswitch was sequestered by streptavidin, allowing the nucleic acid to take the place of protein as the immobile partner in the binding assay. Vc2* was tested directly for sequestration of cdiGMP and also biotinylated and tested for binding to cdiGMP in the presence or absence of streptavidin. […]

## Nc1nc2c(ncn2[C@@H]2O[C@@H]3CO[P@](=O)(O)O[C@H]4[C@@H](O)[C@H](n5cnc6c(=O)[nH]c(N)nc65)O[C@@H]4CO[P@](=O)(O)O[C@H]3[C@H]2O)c(=O)[nH]1 [cdiGMP, cyclic-di-GMP]
[1]; 1 mM unlabeled cdiGMP
  fraction bound (FB) after competition with unlabeled cdiGMP: 0.04±0.01
[1]; no competitor
  fraction bound (FB): 0.31±0.07
[1]; 1 mM cold nucleotide (400-fold molar excess over protein)
  Alg44PilZ binding to 32P-cdiGMP abolished by unlabeled nucleotide: abolished
[2]
  Kd: 7.8 nM
